Test results as given in patent publication US6414014B1 (Bristol-Myers Squibb Company, priority 1992, dated 2002).

Assays:
[1] = test system: drug-refractory ovarian cancer; conditions: in vivo; cited from earlier work
[2] = Hematologic toxicity (myelotoxicity) in the randomized taxol study, weekly blood counts; type: in vivo, patients
Description: (§1) Responses were evaluated every two cycles.
(§2) Eligible patients were randomized according to a computerized randomization log. During therapy, hematology data (hemoglobin, white blood cell count, granulocytes and platelets) were collected, and toxicity assessments were continuously made. After each cycle, a physical history update was recorded, as well as tumor measurement, performance status (ECOG), hematology, chemistry (serum creatinine, billirubin, alkaline phosphatase, (SLOT (AST), CA125) and a toxicity assessment. A quality of life assessment was also made after each cycle, and every two months until six months after treatment stopped.
White blood cell (WBC) counts, absolute neutrophil count (ANC), platelet counts, and hemoglobin (Hb) concentration were the primary variables used to evaluate treatment related myelosuppression. The World Health Orgination, WHO, grades of nadir for the entire study population of 157 patients during course 1 are presented in the table below. Leukopenia and neutropenia were the most frequent and severe hemotologic adverse effects observed during the first couse of treatment. 53% (83/156) of the patients had Grade III or IV neutropenia, while 39% (61/157) had Grade III or IV leukopenia.

[3] = test system: patients suffering from ovarian carcinoma; assay: Multi-center, randomized comparative study of taxol in platinum pretreated ovarian carcinoma: objective response; type: in vivo
Excerpt: The high degree of success, greater than 10% of objective response, to treatment by patients suffering from drug refractory ovarian carcinoma is truly astonishing, since responses to drug refractory ovarian carcinoma are extremely uncommon. While experimental data is provided herein for the successful treatment of ovarian carcinoma with taxol using the present treatment protocol, it is to be understood that the treatment protocol can be used for the treatment of other forms of cancer with taxol, such as melanoma, renal cell carcinoma, and other cancers which are treatable with taxol.
as §1
Patients with ovarian carcinoma included in the study had been treated with and were unresponsive to a minimum of one but no more than two platinum-containing chemotherapy regimens, and were required to have shown progression during or relapse after their last regimen of chemotherapy. Patients were treated every 21 days if allowed by toxicity.
While an emulsion of taxol in polyethoxylated caster oil in dehydrated alcohol is utilized as a vehicle in a preferred embodiment, it is contemplated that other pharmaceutically acceptable vehicles for taxol may be used.
This procedure enables the accurate accessment of the patient receiving the taxol.
Patients ranged between 18 and 75 years in age with an Eastern Cooperative Oncology Group, ECOG, performance status of 0, 1, or 2, and had to have recovered from all toxicities of previous treatment. Further, no prior chemotherapy or radiotherapy were allowed within four weeks prior to entry into the study (patients were also not entered into the study if there had been less than six weeks since prior mitomycin, nitrosureas, or high-dose carboplatin therapy). An adequate baseline bone marrow function was required, which was defined as a granulocyte count ≧2,000 cells/cmm and a platelet count ≧100,000 cells/cmm. Adequate hepatic and renal functions were required with normal hepatic function defined as total billirubin ≦1.5 times upper normal value and normal renal function defined as serum creatinine ≦1.5 times upper normal value. Patients with abdominal adenocarcinoma, a previous history of a trial or ventricular arrhythmias, congestive heart failure, myocardial infarction within six months preceding randomization, complete bowel obtruction, a pre-existing neuropathy <WHO grade 2, active infection, prior allergic reaction to drugs containing Cremaphor, or other serious medical condition were excluded from this study.
as §2

[4] = 6-hour IV infusion every 21 days without premedication; cited from earlier work
[5] = TOTAL, all four arms, n = 157, course 1
[6] = arm 135/3 (mg/m^2/infusion hours), n = 39, course 1
[7] = arm 135/24 (mg/m^2/infusion hours), n = 44, course 1
[8] = arm 175/3 (mg/m^2/infusion hours), n = 29, course 1
[9] = arm 175/4 (mg/m^2/infusion hours), n = 45, course 1

In the case of `CC(=O)O[C@H]1C(=O)[C@@]2(C)[C@H]([C@H](OC(=O)c3ccccc3)[C@]3(O)C[C@H](OC(=O)[C@H](O)[C@@H](NC(=O)c4ccccc4)c4ccccc4)C(C)=C1C3(C)C)[C@]1(OC(C)=O)CO[C@@H]1C[C@@H]2O` [taxol], the “activity against drug-refractory ovarian cancer” value [1] is given as “active agent”, the “patients with grade 4 neutropenia” value ([2]; 3-hour infusion, 8/68, course 1) is given as 12% and the “patients with grade 4 neutropenia” value ([2]; 24-hour taxol infusion, 51/88, course 1) is given as 58%. The “AMC Count, WHO grade 0 nadir, patients” value [2, 5] was 37 (24) n (%), the “AMC Count, WHO grade I nadir, patients” value [2, 5] was 13 (8) n (%) and the “AMC Count, WHO grade II nadir, patients” value [2, 5] was 23 (15) n (%). For the same compound, the “AMC Count, WHO grade III nadir, patients” value [2, 5] was 24 (15) n (%), the “AMC Count, WHO grade IV nadir, patients” value [2, 5] was 59 (38) n (%) and the “Platelet Count, WHO grade 0 nadir, patients” value [2, 5] was 147 (94) n (%). For the same compound, the “Platelet Count, WHO grade I nadir, patients” value [2, 5] was 6 (4) n (%), the “Platelet Count, WHO grade II nadir, patients” value [2, 5] was 2 (1) n (%) and the “Platelet Count, WHO grade III nadir, patients” value [2, 5] was 1 (1) n (%). The “Platelet Count, WHO grade IV nadir, patients” value [2, 5] was 1 (1) n (%), the “WBC Count, WHO grade 0 nadir, patients” value [2, 5] was 31 (20) n (%) and the “WBC Count, WHO grade I nadir, patients” value [2, 5] was 29 (18) n (%). For the same compound, the “WBC Count, WHO grade II nadir, patients” value [2, 5] was 36 (23) n (%), the “WBC Count, WHO grade III nadir, patients” value [2, 5] was 50 (32) n (%) and the “WBC Count, WHO grade IV nadir, patients” value [2, 5] was 11 (7) n (%). The “patients with severe neutropenia (WHO Grade III and IV) during at least one course” value ([2]; all arms) was 63%, the “AMC Count, WHO grade 0 nadir, patients” value [2, 6] was 18 (46) n (%) and the “AMC Count, WHO grade I nadir, patients” value [2, 6] was 8 (21) n (%). The “AMC Count, WHO grade II nadir, patients” value [2, 6] was 8 (21) n (%), the “AMC Count, WHO grade III nadir, patients” value [2, 6] was 4 (10) n (%) and the “AMC Count, WHO grade IV nadir, patients” value [2, 6] was 1 (3) n (%). For the same compound, the “Platelet Count, WHO grade 0 nadir, patients” value [2, 6] was 36 (92) n (%), the “Platelet Count, WHO grade I nadir, patients” value [2, 6] was 2 (5) n (%) and the “Platelet Count, WHO grade II nadir, patients” value [2, 6] was 1 (3) n (%). For the same compound, the “Platelet Count, WHO grade III nadir, patients” value [2, 6] was 0 n (%), the “Platelet Count, WHO grade IV nadir, patients” value [2, 6] was 0 n (%) and the “WBC Count, WHO grade 0 nadir, patients” value [2, 6] was 15 (38) n (%). For the same compound, the “WBC Count, WHO grade I nadir, patients” value [2, 6] was 13 (33) n (%), the “WBC Count, WHO grade II nadir, patients” value [2, 6] was 7 (18) n (%) and the “WBC Count, WHO grade III nadir, patients” value [2, 6] was 3 (8) n (%). The “WBC Count, WHO grade IV nadir, patients” value [2, 6] was 1(3) n (%), the “AMC Count, WHO grade 0 nadir, patients” value [2, 7] was 6 (14) n (%) and the “AMC Count, WHO grade I nadir, patients” value [2, 7] was 2 (15) n (%). The “AMC Count, WHO grade II nadir, patients” value [2, 7] was 7 (16) n (%), the “AMC Count, WHO grade III nadir, patients” value [2, 7] was 6 (14) n (%) and the “AMC Count, WHO grade IV nadir, patients” value [2, 7] was 23 (52) n (%). The “Platelet Count, WHO grade 0 nadir, patients” value [2, 7] was 43 (98) n (%), the “Platelet Count, WHO grade I nadir, patients” value [2, 7] was 1 (2) n (%) and the “Platelet Count, WHO grade II nadir, patients” value [2, 7] was 0 n (%). For the same compound, the “Platelet Count, WHO grade III nadir, patients” value [2, 7] was 0 n (%), the “Platelet Count, WHO grade IV nadir, patients” value [2, 7] was 0 n (%) and the “WBC Count, WHO grade 0 nadir, patients” value [2, 7] was 4 (9) n (%). For the same compound, the “WBC Count, WHO grade I nadir, patients” value [2, 7] was 5 (11) n (%), the “WBC Count, WHO grade II nadir, patients” value [2, 7] was 11 (25) n (%) and the “WBC Count, WHO grade III nadir, patients” value [2, 7] was 20 (46) n (%). For the same compound, the “WBC Count, WHO grade IV nadir, patients” value [2, 7] was 4 (9) n (%), the “AMC Count, WHO grade 0 nadir, patients” value [2, 8] was 11 (38) n (%) and the “AMC Count, WHO grade I nadir, patients” value [2, 8] was 2 (7) n (%). For the same compound, the “AMC Count, WHO grade II nadir, patients” value [2, 8] was 3 (10) n (%), the “AMC Count, WHO grade III nadir, patients” value [2, 8] was 6 (21) n (%) and the “AMC Count, WHO grade IV nadir, patients” value [2, 8] was 7 (24) n (%). For the same compound, the “Platelet Count, WHO grade 0 nadir, patients” value [2, 8] was 29 (100) n (%), the “Platelet Count, WHO grade I nadir, patients” value [2, 8] was 0 n (%) and the “Platelet Count, WHO grade II nadir, patients” value [2, 8] was 0 n (%). For the same compound, the “Platelet Count, WHO grade III nadir, patients” value [2, 8] was 0 n (%), the “Platelet Count, WHO grade IV nadir, patients” value [2, 8] was 0 n (%) and the “WBC Count, WHO grade 0 nadir, patients” value [2, 8] was 11 (38) n (%). The “WBC Count, WHO grade I nadir, patients” value [2, 8] was 6 (21) n (%), the “WBC Count, WHO grade II nadir, patients” value [2, 8] was 7 (24) n (%) and the “WBC Count, WHO grade III nadir, patients” value [2, 8] was 5 (17) n (%). For the same compound, the “WBC Count, WHO grade IV nadir, patients” value [2, 8] was 0 — n (%), the “AMC Count, WHO grade 0 nadir, patients” value [2, 9] was 2 (5) n (%) and the “AMC Count, WHO grade I nadir, patients” value [2, 9] was 1 (2) n (%). For the same compound, the “AMC Count, WHO grade II nadir, patients” value [2, 9] was 5 (11) n (%), the “AMC Count, WHO grade III nadir, patients” value [2, 9] was 8 (18) n (%) and the “AMC Count, WHO grade IV nadir, patients” value [2, 9] was 28 (63) n (%). The “Platelet Count, WHO grade 0 nadir, patients” value [2, 9] was 39 (87) n (%), the “Platelet Count, WHO grade I nadir, patients” value [2, 9] was 3 (7) n (%) and the “Platelet Count, WHO grade II nadir, patients” value [2, 9] was 1 (2) n (%). For the same compound, the “Platelet Count, WHO grade III nadir, patients” value [2, 9] was 1 (2) n (%), the “Platelet Count, WHO grade IV nadir, patients” value [2, 9] was 1 (2) n (%) and the “WBC Count, WHO grade 0 nadir, patients” value [2, 9] was 1 (2) n (%). For the same compound, the “WBC Count, WHO grade I nadir, patients” value [2, 9] was 5 (11) n (%), the “WBC Count, WHO grade II nadir, patients” value [2, 9] was 11 (25) n (%) and the “WBC Count, WHO grade III nadir, patients” value [2, 9] was 22 (49) n (%). The “WBC Count, WHO grade IV nadir, patients” value [2, 9] was 6 (13) n (%), the “severe leukopenia (grade 3 and grade 4 pooled), 24-hour versus 3-hour infusion” value ([2]; course 1) was “more frequently” and the “patients with Grade III or IV leukopenia” value ([2]; course 1, 61/157, all arms) was 39%. The “patients with Grade III or IV neutropenia” value ([2]; course 1, 83/156, all arms) was 53%, the “patients with severe thrombocytopenia” value ([2]; course 1, two patients, all arms) was 1% and the “incidence of severe neutropenia” value ([2]; high dose arms, 55/74) was 74%. For the same compound, the “incidence of severe neutropenia” value ([2]; long-term infusion arms) was 85%, the “anemia of any grade in patients with normal baseline Hb values” ([2]; long-term infusion, 26/55) was 47% and the “incidence of severe neutropenia” value ([2]; low dose arms, 43/83) was 52%. For the same compound, the “anemia of any grade in patients with normal baseline Hb values” ([2]; short-term infusion) was 28%, the “incidence of severe neutropenia” value ([2]; short-term infusion arms) was 32% and the “stabilization of disease, patients with an early relapse after platinum” value [3] was 53%. The “response to taxol in patients who had progressed on previous platinum containing chemotherapy” value ([3]; 3 out of 46) was 7%, the “response to taxol in patients considered resistant to platinum therapy” value ([3]; 14/114, progression on therapy or relapse within six months) was 13% and the “objective response rate, not evaluated and unevaluable patients excluded” value ([3]; 22/135 patients) was 16%. The “stabilization of disease, patients with disease truly refractory to platinum” value ([3]; 24/46) was 52%, the “response to taxol, platinum resistant patients with one previous regimen of platinum” value ([3]; in vivo) was 15% and the “response to taxol, platinum resistant patients with two previous regimens of platinum” value ([3]; in vivo) was 10%. The “patients with stable disease continued on taxol” value ([3]; of 157 patients) was 51 patients and the maximum tolerated dose [4] was 275 mg/m^2.
